The target of assay [1] is Tyrosine-protein kinase JAK1 (Homo sapiens, UniProt P23458). The assay can be described thus: High ATP Caliper Endpoint Assay: JAK1 enzyme (Invitrogen) stock solution is made up at 5.2 uM in sterile water. JAK1 enzyme stock is diluted to 20 nM in assay buffer (10 mM HEPES free acid pH 7.5, 10 mM HEPES free base pH 7.5, 10 mM MgCL2, 0.0005% Tween-20, 0.01% BSA) containing 2 mM DTT (all supplied by Sigma) with the addition of one protease tablet per 25 mls buffer (Roche). ATP is made up at 10 mM stock in sterile water and diluted to 5 mM in assay buffer. Peptide H236 (Caliper Life Sciences) is made up at 1.5 mM in 100% DMSO and diluted to 3 uM in assay buffer. Stop buffer comprises 140 mM HEPES, 22.5 mM EDTA (Sigma) and 0.15% coating reagent (Caliper Life Sciences).Assays are performed in Greiner polypropylene 384 well plates. Following compound preparation within the plate 10 ul of enzyme in assay buffer containing DTT is added using a Multidrop Micro. Final assay concentration of enzyme is 10 nM. Compound and enzyme are pre-incubated for 30 minutes at room temperature.
Tyrosine-protein kinase JAK1, sequence (P23458 whole entry): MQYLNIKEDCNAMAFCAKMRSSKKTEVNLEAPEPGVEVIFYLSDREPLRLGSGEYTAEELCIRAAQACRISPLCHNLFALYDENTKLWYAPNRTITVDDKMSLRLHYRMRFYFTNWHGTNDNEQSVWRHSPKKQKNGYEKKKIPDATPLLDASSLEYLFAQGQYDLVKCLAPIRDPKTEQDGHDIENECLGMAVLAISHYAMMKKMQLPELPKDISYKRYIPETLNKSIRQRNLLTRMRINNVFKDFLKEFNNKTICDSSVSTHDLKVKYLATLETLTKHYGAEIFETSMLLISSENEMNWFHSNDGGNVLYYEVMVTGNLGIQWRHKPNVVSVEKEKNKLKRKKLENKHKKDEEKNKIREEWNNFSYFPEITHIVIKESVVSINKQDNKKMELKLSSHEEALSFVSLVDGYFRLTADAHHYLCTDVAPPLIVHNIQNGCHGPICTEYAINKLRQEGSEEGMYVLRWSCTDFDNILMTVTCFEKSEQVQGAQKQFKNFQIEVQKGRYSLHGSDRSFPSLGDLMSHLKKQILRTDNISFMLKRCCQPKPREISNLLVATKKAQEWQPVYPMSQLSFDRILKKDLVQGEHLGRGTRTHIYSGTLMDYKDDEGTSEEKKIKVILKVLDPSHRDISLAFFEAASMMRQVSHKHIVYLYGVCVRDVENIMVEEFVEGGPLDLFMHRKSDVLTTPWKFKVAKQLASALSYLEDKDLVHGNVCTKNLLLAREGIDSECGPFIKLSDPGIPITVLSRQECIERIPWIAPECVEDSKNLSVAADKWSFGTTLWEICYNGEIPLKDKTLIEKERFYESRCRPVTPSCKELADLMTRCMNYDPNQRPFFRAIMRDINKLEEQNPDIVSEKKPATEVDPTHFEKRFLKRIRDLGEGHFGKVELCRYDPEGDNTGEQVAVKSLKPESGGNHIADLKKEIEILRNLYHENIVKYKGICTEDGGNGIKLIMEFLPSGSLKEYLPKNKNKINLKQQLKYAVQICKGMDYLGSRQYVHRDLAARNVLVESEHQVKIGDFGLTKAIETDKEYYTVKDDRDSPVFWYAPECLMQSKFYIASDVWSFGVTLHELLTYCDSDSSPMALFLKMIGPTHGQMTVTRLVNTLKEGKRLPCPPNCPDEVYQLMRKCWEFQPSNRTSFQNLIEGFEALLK

In assay [2] the target is T1, Tyrosine-protein kinase JAK3 (Homo sapiens, UniProt P52333).
T1 sequence (P52333 whole entry): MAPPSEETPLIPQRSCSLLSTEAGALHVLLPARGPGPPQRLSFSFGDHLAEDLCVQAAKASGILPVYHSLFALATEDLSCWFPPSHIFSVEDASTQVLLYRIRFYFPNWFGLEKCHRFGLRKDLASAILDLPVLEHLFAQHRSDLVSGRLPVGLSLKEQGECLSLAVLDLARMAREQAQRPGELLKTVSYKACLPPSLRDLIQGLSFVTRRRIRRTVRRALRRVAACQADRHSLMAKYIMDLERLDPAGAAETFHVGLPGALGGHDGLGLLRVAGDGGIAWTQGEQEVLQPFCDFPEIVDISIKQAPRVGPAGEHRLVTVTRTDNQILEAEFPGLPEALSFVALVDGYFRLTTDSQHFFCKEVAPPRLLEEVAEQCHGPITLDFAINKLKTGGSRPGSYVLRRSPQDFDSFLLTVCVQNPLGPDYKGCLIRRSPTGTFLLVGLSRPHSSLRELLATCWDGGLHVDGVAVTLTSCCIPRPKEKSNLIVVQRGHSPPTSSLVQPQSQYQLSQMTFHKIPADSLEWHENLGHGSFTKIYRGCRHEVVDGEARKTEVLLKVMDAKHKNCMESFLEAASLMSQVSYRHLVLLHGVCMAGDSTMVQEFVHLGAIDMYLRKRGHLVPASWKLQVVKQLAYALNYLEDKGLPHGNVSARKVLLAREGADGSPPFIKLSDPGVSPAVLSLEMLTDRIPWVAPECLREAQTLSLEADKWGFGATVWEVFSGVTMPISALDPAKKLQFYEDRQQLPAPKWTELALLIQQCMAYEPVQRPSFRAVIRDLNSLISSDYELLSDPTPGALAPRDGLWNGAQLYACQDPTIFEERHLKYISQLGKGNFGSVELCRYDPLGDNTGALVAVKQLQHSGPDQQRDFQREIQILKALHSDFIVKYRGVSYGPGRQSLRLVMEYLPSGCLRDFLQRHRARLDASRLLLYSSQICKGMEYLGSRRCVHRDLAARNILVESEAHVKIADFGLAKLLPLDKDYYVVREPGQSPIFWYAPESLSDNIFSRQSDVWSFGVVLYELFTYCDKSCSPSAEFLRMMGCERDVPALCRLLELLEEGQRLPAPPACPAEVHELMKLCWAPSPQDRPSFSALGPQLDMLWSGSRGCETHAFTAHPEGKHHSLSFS
The assay can be described thus: High ATP Caliper Endpoint Assay: JAK3 enzyme (Invitrogen) stock solution is made up at 4.1 uM in sterile water. JAK3 enzyme stock is diluted to 2 nM in assay buffer (10 mM HEPES free acid pH 7.5, 10 mM HEPES free base pH 7.5, 10 mM MgCL2, 0.0005% Tween-20, 0.01% BSA) containing 2 mM DTT (all supplied by Sigma). ATP is made up at 10 mM stock in sterile water and diluted to 800 uM in assay buffer. ….

pIC50: −log10 of the molar value.

Consider `CCc1cc(O)c(F)cc1-c1ccc2c(-c3nc4c([nH]3)CCN(C(=O)c3ccc(C#N)nc3)CC4)n[nH]c2c1`, for which the pIC50 in assay [1] is 8.47; in assay [2], 8.85.

Take `CCc1cc(O)c(F)cc1-c1ccc2c(-c3nc4c([nH]3)CCN(Cc3ccc5ncccc5c3)C4)n[nH]c2c1`: the negative-log IC50 (pIC50) in assay [1] is 8.38; in assay [2] it was 8.85.

These data come from ChEMBL document CHEMBL3638792, “Indazoles” (2014).
